# From patent publication US20260085062A1, “NOVEL COMPOUNDS AS CK2 INHIBITORS” (Cambridge Enterprise Limited, priority 2022, published 2026)
# How the values were obtained:
# CK2α = biological target: T1, CK2α (Homo sapiens, UniProt P68400); test: Biochemical assay for inhibitors of CK2α kinase activity (ADP-Glo); details: 0.2 nM CK2α, 50 μM peptide substrate, 15 μM ATP, read-out: Assay 1: CK2α Enzyme IC50
# T1 construct: CK2α (residues 2-329) was produced in Escherichia coli BL21 (DE3) for kinase activity screening; His6 (N, cleaved yes); made in house; host or cells: Escherichia coli BL21 (DE3)
# T1 sequence (P68400 2-329): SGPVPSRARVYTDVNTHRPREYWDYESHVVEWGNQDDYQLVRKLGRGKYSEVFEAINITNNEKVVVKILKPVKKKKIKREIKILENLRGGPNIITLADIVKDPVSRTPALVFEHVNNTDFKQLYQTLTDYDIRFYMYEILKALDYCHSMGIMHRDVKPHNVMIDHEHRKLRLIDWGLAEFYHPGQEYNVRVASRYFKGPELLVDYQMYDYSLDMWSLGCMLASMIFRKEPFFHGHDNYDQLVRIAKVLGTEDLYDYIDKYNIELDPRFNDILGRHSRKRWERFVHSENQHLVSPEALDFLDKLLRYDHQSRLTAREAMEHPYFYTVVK
# CLK2 = biological target: T2, CLK2 (Homo sapiens, UniProt P49760); test: Biochemical assay for inhibitors of CLK2 kinase activity (ADP-Glo); details: 20 nM CLK2, 50 μM peptide substrate, 100 μM ATP, read-out: Assay 2: CLK2 Enzyme IC50
# T2 construct: purchased Carna Biosciences 04-127
# T2 sequence (P49760 whole entry): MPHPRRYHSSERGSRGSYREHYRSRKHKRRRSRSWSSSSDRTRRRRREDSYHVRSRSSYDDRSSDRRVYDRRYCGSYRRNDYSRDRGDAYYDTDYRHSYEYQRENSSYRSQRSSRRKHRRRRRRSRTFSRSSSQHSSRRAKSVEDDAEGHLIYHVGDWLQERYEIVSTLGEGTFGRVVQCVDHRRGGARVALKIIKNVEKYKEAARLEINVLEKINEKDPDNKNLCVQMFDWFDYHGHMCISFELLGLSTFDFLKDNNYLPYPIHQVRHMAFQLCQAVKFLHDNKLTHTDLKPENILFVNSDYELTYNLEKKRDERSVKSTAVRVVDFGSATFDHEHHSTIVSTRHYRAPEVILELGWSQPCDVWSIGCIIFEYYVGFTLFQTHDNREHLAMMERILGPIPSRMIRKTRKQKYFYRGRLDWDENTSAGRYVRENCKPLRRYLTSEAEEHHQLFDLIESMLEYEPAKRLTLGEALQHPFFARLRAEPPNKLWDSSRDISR
# intracellular CK2α = biological target: T3, intracellular CK2α (Homo sapiens, UniProt P19784); test: Cell-based NanoBRET assay for inhibitor binding to intracellular CK2α; details: HCT116 cells transiently transfected with CSNK2A2-NanoLuc fusion vector; Tracer K-5; 2 h; read-out: Assay 3: NanoBRET ™ assay for binding to intracellular CK2α
# T3 construct: host or cells: HCT116 (ATCC CCL-247)
# T3 sequence (P19784 whole entry, the tested form may be a part): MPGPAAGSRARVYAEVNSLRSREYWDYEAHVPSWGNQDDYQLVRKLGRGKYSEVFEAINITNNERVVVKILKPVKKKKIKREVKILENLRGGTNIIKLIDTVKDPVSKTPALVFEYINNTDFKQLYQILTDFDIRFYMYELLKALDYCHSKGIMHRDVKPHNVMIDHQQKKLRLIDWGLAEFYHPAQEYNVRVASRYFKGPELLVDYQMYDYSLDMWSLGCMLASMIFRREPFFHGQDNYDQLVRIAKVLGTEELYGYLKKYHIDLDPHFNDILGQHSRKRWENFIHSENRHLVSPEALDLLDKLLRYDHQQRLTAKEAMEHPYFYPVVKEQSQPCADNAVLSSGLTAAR
# Outline: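 Apparent affinity came from BRET ratio (acceptor/donor ×1,000), with donor read at 450 nm and acceptor at 610 or 630 nm. Compounds competed off a tracer added at fixed concentration to cells carrying a NanoLuc-CK2α fusion.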
Molecule,IC50 (CK2α),IC50 (CLK2),IC50 (intracellular CK2α)
"O=C(CCNCc1ccc(OC(F)(F)F)c(CO)c1)NCCCNc1cc(-n2cnnc2)cc2[nH]ncc12 [Example 44, N-(3-((6-(4H-1,2,4-triazol-4-yl)-1H-indazol-4-yl)amino)propyl)-3-((3-(hydroxymethyl)-4-(trifluoromethoxy)benzyl)amino)propanamide]",0.00146 µM,0.0396 µM,16.8 µM
"N#Cc1cc(CNCCC(=O)NCCCNc2cc(-n3cnnc3)cc3[nH]ncc23)ccc1OC(F)(F)F [Example 46, N-(3-((6-(4H-1,2,4-triazol-4-yl)-1H-indazol-4-yl)amino)propyl)-3-((3-cyano-4-(trifluoromethoxy)benzyl)amino)propanamide]",0.00265 µM,0.237 µM,13.4 µM
"OCc1cc(CNCCCCOC2CN(c3cc(-c4ccnnc4)cc4[nH]ncc34)C2)cc(C(F)(F)F)c1 [Example 112, (3-(((4-((1-(6-(pyridazin-4-yl)-1H-indazol-4-yl)azetidin-3-yl)oxy)butyl)amino)methyl)-5-(trifluoromethyl)phenyl)methanol]",0.205 µM,0.633 µM,14 µM
"FC(F)(F)Oc1ccc(CNCCCCOC2CN(c3cc(-c4cnoc4)cc4[nH]ncc34)C2)cc1Cl [Example 137, N-(3-chloro-4-(trifluoromethoxy)benzyl)-4-((1-(6-(isoxazol-4-yl)-1H-indazol-4-yl)azetidin-3-yl)oxy)butan-1-amine]",0.013 µM,0.333 µM,2.87 µM
"N#Cc1[nH]ncc1-c1cc(NCCCNC(=O)CCNCc2ccc(OC(F)(F)F)c(Cl)c2)c2cn[nH]c2c1 [Example 156, 3-((3-chloro-4-(trifluoromethoxy)benzyl)amino)-N-(3-((6-(5-cyano-1H-pyrazol-4-yl)-1H-indazol-4-yl)amino)propyl)propanamide]",0.00064 µM,0.071 µM,0.108 µM
"N-(2-(4-((3-chloro-4-(trifluoromethoxy)benzyl)amino)butoxy)ethyl)-6-(azetidine-4-yl)-1H-benzo[d][1,2,3]triazol-4-amine [Example 127]",0.00506 µM,1.38 µM,0.306 µM
"Fc1cc(CNCCCCOC2CN(c3cc(-c4ccnnc4)cc4[nH]ncc34)C2)ccc1OC(F)(F)F [Example 108, N-(3-fluoro-4-(trifluoromethoxy)benzyl)-4-((1-(6-(pyridazin-4-yl)-1H-indazol-4-yl)azetidin-3-yl)oxy) butan-1-amine]",0.0209 µM,2.73 µM,2.38 µM
"COc1n[nH]cc1-c1cc(NCCCNC(=O)CCNCc2ccc(-c3ccccc3)c(Cl)c2)c2cn[nH]c2c1 [Example 76, 3-(((2-chloro-[1,1′-biphenyl]-4-yl)methyl)amino)-N-(3-((6-(3-methoxy-1H-pyrazol-4-yl)-1H-indazol-4-yl)amino)propyl)propanamide]",0.00264 µM,0.0186 µM,0.735 µM
"O=C(CCNCc1cccc(Cl)c1)NCCCNc1cc(-n2cnnc2)cc2[nH]ncc12 [Example 13, N-(3-((6-(4H-1,2,4-triazol-4-yl)-1H-indazol-4-yl)amino)propyl)-3-((3-chlorobenzyl)amino)propanamide]",0.00143 µM,0.0517 µM,3.89 µM
"Clc1cc(CNCCc2cn(CCNc3cc(-n4cnnc4)cc4[nH]ncc34)nn2)ccc1-c1ccccc1 [Example 14, N-(2-(4-(2-(((2-chloro-[1,1′-biphenyl]-4-yl)methyl)amino)ethyl)-1H-1,2,3-triazol-1-yl)ethyl)-6-(4H-1,2,4-triazol-4-yl)-1H-indazol-4-amine]",0.0016 µM,0.322 µM,2.12 µM
"Cc1nccn1-c1cc(NCCCNC(=O)CCNCc2ccc(-c3ccccc3)c(Cl)c2)c2cn[nH]c2c1 [Example 80, 3-(((2-chloro-[1,1′-biphenyl]-4-yl)methyl)amino)-N-(3-((6-(2-methyl-1H-imidazol-1-yl)-1H-indazol-4-yl)amino)propyl)propanamide]",0.0467 µM,1.92 µM,8.05 µM
"FC(F)(F)c1ccc2[nH]c(CNCCCCOCCNc3cc(-c4ccnnc4)cc4[nH]nnc34)cc2c1 [Example 100, 6-(pyridazin-4-yl)-N-(2-(4-(((5-(trifluoromethyl)-1H-indol-2-yl)methyl)amino)butoxy)ethyl)-1H-benzo[d][1,2,3]triazol-4-amine]",0.0223 µM,22.9 µM,1.41 µM
"N#CCc1cc(Cl)cc(CNCCCCOC2CN(c3cc(-c4ccnnc4)cc4[nH]ncc34)C2)c1 [Example 133, 2-(3-chloro-5-(((4-((1-(6-(pyridazin-4-yl)-1H-indazol-4-yl)azetidin-3-yl)oxy)butyl)amino)methyl)phenyl)acetonitrile]",0.0315 µM,2.04 µM,3.07 µM
"FC(F)(F)c1ccc2[nH]c(CNCCCCOCCOc3cc(-c4ccnnc4)cc4[nH]nnc34)cc2c1 [Example 101, 4-(2-((6-(pyridazin-4-yl)-1H-benzo[d][1,2,3]triazol-4-yl)oxy)ethoxy)-N-((5-(trifluoromethyl)-1H-indol-2-yl)methyl)butan-1-amine]",0.223 µM,48.6 µM,> 50 µM
"OCc1cc(CNCCCCOC2CN(c3cc(-n4cnnc4)cc4[nH]ncc34)C2)cc(C(F)(F)F)c1 [Example 104, (3-(((4-((1-(6-(4H-1,2,4-triazol-4-yl)-1H-indazol-4-yl)azetidin-3-yl)oxy)butyl)amino)methyl)-5-(trifluoromethyl)phenyl)methanol]",0.0642 µM,0.264 µM,14.9 µM
"FC(F)(F)c1ccc2[nH]c(CNCCCCOCCOc3cc(-c4ccnnc4)cc4[nH]ncc34)cc2c1 [Example 56, 4-(2-((6-(pyridazin-4-yl)-1H-indazol-4-yl)oxy)ethoxy)-N-((5-(trifluoromethyl)-1H-indol-2-yl)methyl)butan-1-amine]",0.00659 µM,3.15 µM,0.387 µM
"Nc1cc(-c2cc(NCCCNC(=O)CCNCc3ccc(OC(F)(F)F)c(Cl)c3)c3cn[nH]c3c2)ccn1 [Example 184, N-(3-((6-(2-aminopyridin-4-yl)-1H-indazol-4-yl)amino)propyl)-3-((3-chloro-4-(trifluoromethoxy)benzyl)amino)propanamide]",0.00094 µM,0.017 µM,0.177 µM
"O=C(CCNCc1ccc(-c2ccccc2)c(Cl)c1)NCCCNc1cc(-c2cncnc2)cc2[nH]ncc12 [Example 73, 3-(((2-chloro-[1,1′-biphenyl]-4-yl)methyl)amino)-N-(3-((6-(pyrimidin-5-yl)-1H-indazol-4-yl)amino)propyl)propanamide]",0.0443 µM,1.96 µM,0.743 µM
"O=C(CCNCc1ccc(OC(F)(F)F)c(Cl)c1)NCCCNc1cc(-n2cnnc2)c(Cl)c2[nH]ncc12 [Example 181, 3-((3-chloro-4-(trifluoromethoxy)benzyl)amino)-N-(3-((7-chloro-6-(4H-1,2,4-triazol-4-yl)-1H-indazol-4-yl)amino)propyl)propanamide]",0.017 µM,0.448 µM,11.4 µM
"OCc1cc(CNC2CC(COCCNc3cc(-c4cnns4)cc4[nH]ncc34)C2)cc(OC(F)(F)F)c1 (stereo not drawn) [Example 203, (3-(((3-((2-((6-(1,2,3-thiadiazol-5-yl)-1H-indazol-4-yl)amino)ethoxy)methyl)cyclobutyl)amino)methyl)-5-(trifluoromethoxy)phenyl)methanol]",0.0361 µM,0.307 µM,0.546 µM
OCc1cc(CNC2CC(COCCOc3cc(-c4cnnc(O)c4)cc4[nH]ncc34)C2)cc(OC(F)(F)F)c1 (stereo not drawn) [Example 200],0.0382 µM,0.594 µM,2.96 µM
"O=C(CCNCc1cc(Cl)cc(CO)c1)NCCCNc1cc(-n2cnnc2)cc2[nH]ncc12 [Example 43, N-(3-((6-(4H-1,2,4-triazol-4-yl)-1H-indazol-4-yl)amino)propyl)-3-((3-chloro-5-(hydroxymethyl)benzyl)amino)propanamide]",0.00062 µM,0.0384 µM,20.2 µM
"O=C(CCNCc1ccc(-c2ccccc2)c(Cl)c1)NCCCNc1cc(C2CCOC2)cc2[nH]ncc12 (stereo not drawn) [Example 82, 3-(((2-chloro-[1,1′-biphenyl]-4-yl)methyl)amino)-N-(3-((6-(tetrahydrofuran-3-yl)-1H-indazol-4-yl)amino)propyl)propanamide]",0.0233 µM,1.87 µM,2.12 µM
"O=C(CCNCc1ccc(-c2ccccc2)c(Cl)c1)NCCCNc1cc(-c2ccncc2)cc2[nH]nnc12 [Example 8, 3-(((2-chloro-[1,1′-biphenyl]-4-yl)methyl)amino)-N-(3-((6-(pyridin-4-yl)-1H-benzo[d][1,2,3]triazol-4-yl)amino)propyl)propanamide]",0.00062 µM,1.1 µM,0.304 µM
